In publication PMC9851200, “Multiparameter phenotypic screening for endogenous TFEB and TFE3 translocation identifies novel chemical series modulating lysosome function” (Autophagy, 2022):

Tests used:
Assay type in all cases: binding
[1] = biological target: T1, kinases (KINOMEscan panel) (Homo sapiens, UniProt O00141); details: kinase SGK1; NEW KINOMEscan
T1 sequence (O00141 1-431): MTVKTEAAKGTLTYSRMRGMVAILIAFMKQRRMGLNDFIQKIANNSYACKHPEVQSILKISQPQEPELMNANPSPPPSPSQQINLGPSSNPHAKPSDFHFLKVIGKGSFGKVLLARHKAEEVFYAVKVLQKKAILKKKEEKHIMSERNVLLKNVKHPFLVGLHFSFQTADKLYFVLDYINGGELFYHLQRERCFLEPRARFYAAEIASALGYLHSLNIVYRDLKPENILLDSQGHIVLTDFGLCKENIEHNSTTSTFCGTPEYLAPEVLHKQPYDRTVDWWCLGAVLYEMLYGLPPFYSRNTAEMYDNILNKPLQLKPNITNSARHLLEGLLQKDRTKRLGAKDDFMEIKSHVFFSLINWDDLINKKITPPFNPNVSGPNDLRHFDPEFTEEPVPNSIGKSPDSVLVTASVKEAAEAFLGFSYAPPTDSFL

[2] = biological target: kinases (KINOMEscan panel) (Homo sapiens, UniProt P29376); details: LTK; NEW KINOMEscan
[3] = biological target: kinases (KINOMEscan panel) (Homo sapiens, UniProt Q13557); details: kinase CAMK2D; NEW KINOMEscan
[4] = biological target: kinases (KINOMEscan panel) (Homo sapiens, UniProt P49336); details: CDK8; NEW KINOMEscan
[5] = biological target: T2, kinases (KINOMEscan panel) (Homo sapiens, UniProt Q9UF33); details: kinase EPHA6; NEW KINOMEscan
T2 sequence (Q9UF33 23-1036): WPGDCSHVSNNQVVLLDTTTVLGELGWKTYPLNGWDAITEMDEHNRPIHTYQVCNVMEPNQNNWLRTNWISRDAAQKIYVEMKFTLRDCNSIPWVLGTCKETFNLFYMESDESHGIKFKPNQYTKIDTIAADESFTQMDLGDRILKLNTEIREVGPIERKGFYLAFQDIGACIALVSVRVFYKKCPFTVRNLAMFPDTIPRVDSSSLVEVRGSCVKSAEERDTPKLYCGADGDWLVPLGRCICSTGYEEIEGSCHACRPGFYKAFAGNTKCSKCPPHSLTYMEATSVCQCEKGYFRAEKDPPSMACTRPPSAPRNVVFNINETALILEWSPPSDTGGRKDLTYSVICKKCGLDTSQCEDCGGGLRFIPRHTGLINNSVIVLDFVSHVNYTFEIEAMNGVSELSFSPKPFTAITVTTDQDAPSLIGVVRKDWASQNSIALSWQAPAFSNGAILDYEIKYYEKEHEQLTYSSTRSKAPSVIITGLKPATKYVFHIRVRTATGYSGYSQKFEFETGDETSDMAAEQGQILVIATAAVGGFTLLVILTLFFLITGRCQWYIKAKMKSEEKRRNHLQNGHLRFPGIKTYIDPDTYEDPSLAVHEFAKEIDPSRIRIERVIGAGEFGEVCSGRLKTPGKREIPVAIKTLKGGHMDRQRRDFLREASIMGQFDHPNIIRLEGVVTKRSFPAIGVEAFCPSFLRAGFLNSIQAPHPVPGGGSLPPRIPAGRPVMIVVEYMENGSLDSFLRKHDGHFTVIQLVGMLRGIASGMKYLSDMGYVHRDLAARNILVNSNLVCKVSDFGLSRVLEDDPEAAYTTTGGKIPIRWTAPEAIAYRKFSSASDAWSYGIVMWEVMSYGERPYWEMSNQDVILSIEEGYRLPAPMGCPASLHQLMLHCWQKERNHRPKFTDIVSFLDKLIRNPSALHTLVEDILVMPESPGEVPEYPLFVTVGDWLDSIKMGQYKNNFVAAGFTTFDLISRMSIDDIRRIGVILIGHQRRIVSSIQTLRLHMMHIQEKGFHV

[6] = biological target: kinases (KINOMEscan panel) (Homo sapiens, UniProt Q16816); details: PHKG1; NEW KINOMEscan
[7] = biological target: T3, kinases (KINOMEscan panel) (Homo sapiens, UniProt Q6PHR2); details: kinase ULK3; NEW KINOMEscan
T3 sequence (Q6PHR2 1-472): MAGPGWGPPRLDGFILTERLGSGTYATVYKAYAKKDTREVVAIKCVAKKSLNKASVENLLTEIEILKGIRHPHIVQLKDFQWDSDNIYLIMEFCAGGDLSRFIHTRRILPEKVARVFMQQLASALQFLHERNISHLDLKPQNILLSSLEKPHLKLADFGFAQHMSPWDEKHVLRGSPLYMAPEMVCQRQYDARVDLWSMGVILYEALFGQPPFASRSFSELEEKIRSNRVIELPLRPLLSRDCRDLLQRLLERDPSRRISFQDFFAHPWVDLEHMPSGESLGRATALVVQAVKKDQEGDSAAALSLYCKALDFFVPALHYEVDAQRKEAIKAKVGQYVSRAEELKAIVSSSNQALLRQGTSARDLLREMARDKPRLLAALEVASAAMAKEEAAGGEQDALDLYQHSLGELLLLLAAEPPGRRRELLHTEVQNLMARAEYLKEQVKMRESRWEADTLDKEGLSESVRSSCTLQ

[8] = biological target: kinases (KINOMEscan panel) (Homo sapiens, UniProt P51451); details: kinase BLK; NEW KINOMEscan
kinases (KINOMEscan panel) (Homo sapiens, UniProt P51451), sequence (P51451 whole entry): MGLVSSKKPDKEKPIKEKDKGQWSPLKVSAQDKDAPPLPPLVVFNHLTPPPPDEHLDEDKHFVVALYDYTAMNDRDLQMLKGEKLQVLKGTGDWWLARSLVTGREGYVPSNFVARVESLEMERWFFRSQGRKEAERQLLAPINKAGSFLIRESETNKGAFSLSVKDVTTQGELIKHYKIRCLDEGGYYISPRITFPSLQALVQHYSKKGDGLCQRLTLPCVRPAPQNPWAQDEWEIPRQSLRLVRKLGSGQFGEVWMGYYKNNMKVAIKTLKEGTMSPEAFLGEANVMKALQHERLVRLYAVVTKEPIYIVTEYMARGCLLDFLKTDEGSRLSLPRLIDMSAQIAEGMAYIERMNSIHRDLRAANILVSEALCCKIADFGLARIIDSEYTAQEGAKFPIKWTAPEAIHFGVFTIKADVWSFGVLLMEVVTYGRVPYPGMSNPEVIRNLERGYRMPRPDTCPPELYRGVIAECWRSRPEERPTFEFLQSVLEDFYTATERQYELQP

kinases (KINOMEscan panel) (Homo sapiens, UniProt P49336), sequence (P49336 whole entry): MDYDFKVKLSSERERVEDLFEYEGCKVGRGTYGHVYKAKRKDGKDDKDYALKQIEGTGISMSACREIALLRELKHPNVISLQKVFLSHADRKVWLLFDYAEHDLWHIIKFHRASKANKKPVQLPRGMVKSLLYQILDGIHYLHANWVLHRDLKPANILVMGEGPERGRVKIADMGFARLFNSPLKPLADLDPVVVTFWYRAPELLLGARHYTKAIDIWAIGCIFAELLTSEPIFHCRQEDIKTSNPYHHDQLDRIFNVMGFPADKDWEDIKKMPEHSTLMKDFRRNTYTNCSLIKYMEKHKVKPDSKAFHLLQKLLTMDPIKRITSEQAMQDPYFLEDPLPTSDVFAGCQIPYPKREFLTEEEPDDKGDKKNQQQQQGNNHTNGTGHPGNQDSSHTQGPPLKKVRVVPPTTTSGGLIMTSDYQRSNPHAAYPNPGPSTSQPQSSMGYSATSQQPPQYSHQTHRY
kinases (KINOMEscan panel) (Homo sapiens, UniProt Q16816), sequence (Q16816 whole entry): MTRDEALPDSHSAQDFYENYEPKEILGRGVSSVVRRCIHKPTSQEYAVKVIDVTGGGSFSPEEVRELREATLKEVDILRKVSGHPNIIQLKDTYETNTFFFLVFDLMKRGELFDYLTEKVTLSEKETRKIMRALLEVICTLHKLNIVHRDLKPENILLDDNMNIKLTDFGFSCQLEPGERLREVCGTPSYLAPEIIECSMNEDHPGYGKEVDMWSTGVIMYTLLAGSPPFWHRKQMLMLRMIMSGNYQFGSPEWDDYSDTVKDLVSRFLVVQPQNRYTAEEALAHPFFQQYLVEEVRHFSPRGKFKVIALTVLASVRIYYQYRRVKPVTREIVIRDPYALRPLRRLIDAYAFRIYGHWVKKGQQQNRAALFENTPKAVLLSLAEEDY
kinases (KINOMEscan panel) (Homo sapiens, UniProt P29376), sequence (P29376 17-864): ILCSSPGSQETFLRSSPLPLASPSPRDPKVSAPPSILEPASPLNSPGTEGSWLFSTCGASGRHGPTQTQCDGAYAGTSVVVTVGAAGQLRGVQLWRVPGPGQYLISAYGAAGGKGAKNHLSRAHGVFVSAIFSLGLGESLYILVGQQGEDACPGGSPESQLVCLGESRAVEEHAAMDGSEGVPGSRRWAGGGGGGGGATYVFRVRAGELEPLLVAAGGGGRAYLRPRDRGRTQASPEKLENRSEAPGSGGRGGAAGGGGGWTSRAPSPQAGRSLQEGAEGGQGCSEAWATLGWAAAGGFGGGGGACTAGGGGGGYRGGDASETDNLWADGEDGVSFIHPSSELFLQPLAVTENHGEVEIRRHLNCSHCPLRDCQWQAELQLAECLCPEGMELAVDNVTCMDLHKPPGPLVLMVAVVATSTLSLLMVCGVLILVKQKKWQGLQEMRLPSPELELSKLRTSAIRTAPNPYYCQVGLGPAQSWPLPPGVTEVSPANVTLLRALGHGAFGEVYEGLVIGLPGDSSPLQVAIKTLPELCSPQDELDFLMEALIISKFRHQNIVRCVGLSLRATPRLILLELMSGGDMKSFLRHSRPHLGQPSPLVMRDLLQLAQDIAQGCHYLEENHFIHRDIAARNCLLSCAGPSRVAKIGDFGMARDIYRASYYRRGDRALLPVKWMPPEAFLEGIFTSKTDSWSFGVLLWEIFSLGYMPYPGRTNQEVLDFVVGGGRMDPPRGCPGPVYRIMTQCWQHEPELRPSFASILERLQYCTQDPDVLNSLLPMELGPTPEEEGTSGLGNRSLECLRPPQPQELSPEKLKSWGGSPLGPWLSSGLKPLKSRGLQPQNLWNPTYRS
kinases (KINOMEscan panel) (Homo sapiens, UniProt Q13557), sequence (Q13557 whole entry): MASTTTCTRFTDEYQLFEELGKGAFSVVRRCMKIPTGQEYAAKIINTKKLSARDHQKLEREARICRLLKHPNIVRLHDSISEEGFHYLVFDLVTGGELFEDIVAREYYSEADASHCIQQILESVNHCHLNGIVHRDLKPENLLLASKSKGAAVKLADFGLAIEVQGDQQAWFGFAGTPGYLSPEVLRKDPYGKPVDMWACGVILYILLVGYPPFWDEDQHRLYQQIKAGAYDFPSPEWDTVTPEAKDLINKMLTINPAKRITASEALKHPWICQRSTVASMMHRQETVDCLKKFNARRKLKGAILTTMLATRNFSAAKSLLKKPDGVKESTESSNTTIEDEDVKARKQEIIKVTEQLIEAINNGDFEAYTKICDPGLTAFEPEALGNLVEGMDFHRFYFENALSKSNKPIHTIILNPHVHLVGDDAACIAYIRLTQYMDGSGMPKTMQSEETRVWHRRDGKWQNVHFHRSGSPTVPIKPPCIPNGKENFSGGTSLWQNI

Row | SMILES | KINOMEscan SGK1 [1] | KINOMEscan LTK [2] | KINOMEscan CAMK2D [3] | KINOMEscan CDK8 [4] | KINOMEscan EPHA6 [5] | KINOMEscan PHKG1 [6] | KINOMEscan ULK3 [7] | KINOMEscan BLK [8]
1 | Cc1cccc(-c2nc(Nc3ccc4nn(C)cc4c3)c3ccccc3n2)n1 [NK167] | 0 | 6 | 0 | 19 | 0 | 5 | 0 | 0
2 | Cc1cccc(-c2nc(N(C)c3ccc4ncsc4c3)c3ccccc3n2)n1 [NK-161] | 14 | 14 | 0 | 12 | 5 | 5 | 1 | 0
